Experimental data as given in the supplement of paper PMC10307832.

Legend:
Assay in all cases: relative viability (nuclei count vs DMSO), 5 days (fraction); higher = more cells survive
CAL-12T = tested on: CAL-12T
Method in brief: (§1)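 Relative viability was taken as the ratio of nuclei in treated wells to nuclei in vehicle wells. Lung cancer cell lines in 1536-well plates received compounds by pin tool one day after seeding, either one drug alone or a fixed anchor-drug dose plus five library-drug doses (not always all listed) in √10 steps. Nuclei were counted on 4× images after 5 days of treatment, and values are medians of duplicate plates.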

NCI-H1755 = tested on: NCI-H1755
Method in brief: as §1

NCI-H2405 = tested on: NCI-H2405
Method in brief: as §1

NCI-H2342 = tested on: NCI-H2342
Method in brief: as §1

PC-14 = tested on: PC-14
Method in brief: as §1

HCC-827 = tested on: HCC-827
Method in brief: as §1

EKVX = tested on: EKVX
Method in brief: as §1

LK-2 = tested on: LK-2
Method in brief: as §1

NCI-H661 = tested on: NCI-H661
Method in brief: as §1

NCI-H520 = tested on: NCI-H520
Method in brief: as §1

NCI-H2228 = tested on: NCI-H2228
Method in brief: as §1

H3255 = tested on: H3255
Method in brief: as §1

NCI-H1734 = tested on: NCI-H1734
Method in brief: as §1

NCI-H1975 = tested on: NCI-H1975
Method in brief: as §1

PC-3 [JPC-3] = tested on: PC-3 [JPC-3]
Method in brief: as §1

LCLC-97TM1 = tested on: LCLC-97TM1
Method in brief: as §1

HCC-15 = tested on: HCC-15
Method in brief: as §1

NCI-H1650 = tested on: NCI-H1650
Method in brief: as §1

NCI-H1355 = tested on: NCI-H1355
Method in brief: as §1

RERF-LC-KJ = tested on: RERF-LC-KJ
Method in brief: as §1

NCI-H322M = tested on: NCI-H322M
Method in brief: as §1

NCI-H1563 = tested on: NCI-H1563
Method in brief: as §1

Cc1sc2c(c1C)C(c1ccc(Cl)cc1)=N[C@@H](CC(=O)OC(C)(C)C)c1nnc(C)n1-2 [JQ1] + COc1cc2c(Oc3ccc(NC(=O)C4(C(=O)Nc5ccc(F)cc5)CC4)cc3F)ccnc2cc1OCCCN1CCOCC1 [Foretinib] (partner 0.25 µM)
relative viability (CAL-12T; first compound 0.04 µM): 1.16 | relative viability (CAL-12T; first compound 0.1265 µM): 0.747 | relative viability (CAL-12T; first compound 0.4 µM): 0.858 | relative viability (CAL-12T; first compound 1.265 µM): 0.351 | relative viability (CAL-12T; first compound 4 µM): 0.307 | relative viability (NCI-H1755; first compound 0.04 µM): 0.896 | relative viability (NCI-H1755; first compound 0.1265 µM): 0.831 | relative viability (NCI-H1755; first compound 0.4 µM): 0.945 | relative viability (NCI-H1755; first compound 1.265 µM): 0.793 | relative viability (NCI-H1755; first compound 4 µM): 0.634 | relative viability (NCI-H2405; first compound 0.04 µM): 1.08 | relative viability (NCI-H2405; first compound 0.1265 µM): 1.02 | relative viability (NCI-H2405; first compound 0.4 µM): 1.03 | relative viability (NCI-H2405; first compound 1.265 µM): 0.835 | relative viability (NCI-H2405; first compound 4 µM): 0.744 | relative viability (NCI-H2342; first compound 0.04 µM): 1.09 | relative viability (NCI-H2342; first compound 0.1265 µM): 0.843 | relative viability (NCI-H2342; first compound 0.4 µM): 1.08 | relative viability (NCI-H2342; first compound 1.265 µM): 0.91 | relative viability (NCI-H2342; first compound 4 µM): 0.824 | relative viability (PC-14; first compound 0.04 µM): 0.906 | relative viability (PC-14; first compound 0.1265 µM): 0.645 | relative viability (PC-14; first compound 0.4 µM): 0.625 | relative viability (PC-14; first compound 1.265 µM): 0.582 | relative viability (PC-14; first compound 4 µM): 0.477 | relative viability (HCC-827; first compound 0.04 µM): 1.1 | relative viability (HCC-827; first compound 0.4 µM): 1.14 | relative viability (HCC-827; first compound 1.265 µM): 1.22 | relative viability (HCC-827; first compound 4 µM): 0.907 | relative viability (EKVX; first compound 0.04 µM): 0.881 | relative viability (EKVX; first compound 0.1265 µM): 0.448 | relative viability (EKVX; first compound 0.4 µM): 0.787 | relative viability (EKVX; first compound 1.265 µM): 0.655 | relative viability (EKVX; first compound 4 µM): 0.512 | relative viability (LK-2; first compound 0.04 µM): 1.21 | relative viability (LK-2; first compound 0.1265 µM): 1.04 | relative viability (LK-2; first compound 0.4 µM): 0.325 | relative viability (LK-2; first compound 1.265 µM): 0.226 | relative viability (LK-2; first compound 4 µM): 0.221 | relative viability (NCI-H661; first compound 0.04 µM): 1.04 | relative viability (NCI-H661; first compound 0.1265 µM): 0.945 | relative viability (NCI-H661; first compound 0.4 µM): 1.03 | relative viability (NCI-H661; first compound 1.265 µM): 0.7 | relative viability (NCI-H661; first compound 4 µM): 0.668 | relative viability (NCI-H520; first compound 0.04 µM): 0.732 | relative viability (NCI-H520; first compound 0.1265 µM): 0.793 | relative viability (NCI-H520; first compound 0.4 µM): 0.81 | relative viability (NCI-H520; first compound 1.265 µM): 0.35 | relative viability (NCI-H520; first compound 4 µM): 0.277 | relative viability (NCI-H2228; first compound 0.04 µM): 0.806 | relative viability (NCI-H2228; first compound 0.1265 µM): 0.766 | relative viability (NCI-H2228; first compound 0.4 µM): 0.647 | relative viability (NCI-H2228; first compound 1.265 µM): 0.481 | relative viability (NCI-H2228; first compound 4 µM): 0.383 | relative viability (H3255; first compound 0.04 µM): 0.78 | relative viability (H3255; first compound 0.1265 µM): 0.884 | relative viability (H3255; first compound 0.4 µM): 0.987 | relative viability (H3255; first compound 1.265 µM): 0.793 | relative viability (H3255; first compound 4 µM): 0.442 | relative viability (NCI-H1734; first compound 0.04 µM): 0.963 | relative viability (NCI-H1734; first compound 0.1265 µM): 0.834 | relative viability (NCI-H1734; first compound 0.4 µM): 0.872 | relative viability (NCI-H1734; first compound 1.265 µM): 0.499 | relative viability (NCI-H1734; first compound 4 µM): 0.531 | relative viability (NCI-H1975; first compound 0.04 µM): 0.916 | relative viability (NCI-H1975; first compound 0.1265 µM): 0.731 | relative viability (NCI-H1975; first compound 0.4 µM): 0.713 | relative viability (NCI-H1975; first compound 1.265 µM): 0.541 | relative viability (NCI-H1975; first compound 4 µM): 0.353 | relative viability (PC-3 [JPC-3]; first compound 0.04 µM): 1.06 | relative viability (PC-3 [JPC-3]; first compound 0.1265 µM): 1.05 | relative viability (PC-3 [JPC-3]; first compound 0.4 µM): 0.75 | relative viability (PC-3 [JPC-3]; first compound 1.265 µM): 0.74 | relative viability (PC-3 [JPC-3]; first compound 4 µM): 0.48 | relative viability (LCLC-97TM1; first compound 0.04 µM): 0.909 | relative viability (LCLC-97TM1; first compound 0.1265 µM): 0.949 | relative viability (LCLC-97TM1; first compound 0.4 µM): 0.823 | relative viability (LCLC-97TM1; first compound 1.265 µM): 0.617 | relative viability (LCLC-97TM1; first compound 4 µM): 0.4 | relative viability (HCC-15; first compound 0.04 µM): 0.914 | relative viability (HCC-15; first compound 0.4 µM): 0.767 | relative viability (HCC-15; first compound 1.265 µM): 0.66 | relative viability (HCC-15; first compound 4 µM): 0.589 | relative viability (NCI-H1650; first compound 0.04 µM): 0.894 | relative viability (NCI-H1650; first compound 0.1265 µM): 0.656 | relative viability (NCI-H1650; first compound 0.4 µM): 0.568 | relative viability (NCI-H1650; first compound 1.265 µM): 0.26 | relative viability (NCI-H1650; first compound 4 µM): 0.161 | relative viability (NCI-H1355; first compound 0.04 µM): 0.925 | relative viability (NCI-H1355; first compound 0.1265 µM): 0.936 | relative viability (NCI-H1355; first compound 0.4 µM): 0.735 | relative viability (NCI-H1355; first compound 1.265 µM): 0.677 | relative viability (NCI-H1355; first compound 4 µM): 0.562 | relative viability (RERF-LC-KJ; first compound 0.04 µM): 0.939 | relative viability (RERF-LC-KJ; first compound 0.1265 µM): 0.88 | relative viability (RERF-LC-KJ; first compound 0.4 µM): 0.942 | relative viability (RERF-LC-KJ; first compound 1.265 µM): 0.748 | relative viability (RERF-LC-KJ; first compound 4 µM): 0.555 | relative viability (NCI-H322M; first compound 0.04 µM): 0.955 | relative viability (NCI-H322M; first compound 0.1265 µM): 1.15 | relative viability (NCI-H322M; first compound 0.4 µM): 0.753 | relative viability (NCI-H322M; first compound 1.265 µM): 0.513 | relative viability (NCI-H322M; first compound 4 µM): 0.441 | relative viability (NCI-H1563; first compound 0.04 µM): 0.96 | relative viability (NCI-H1563; first compound 0.1265 µM): 0.733 | relative viability (NCI-H1563; first compound 0.4 µM): 0.756 | relative viability (NCI-H1563; first compound 1.265 µM): 0.681 | relative viability (NCI-H1563; first compound 4 µM): 0.692
